In PMC7876048, “Mutant-selective degradation by BRAF-targeting PROTACs” (Nature Communications, 2021):
Entries after “also recorded” stand apart in the source; their conditions may differ.

Assays:
[1] = target: T1, ARAF (Homo sapiens, UniProt P10398); test: Radiolabeled kinase assay (Reaction Biology); assay type: biochemical
T1 construct: purchased Reaction Biology Corps
Protocol: (§1) Kinase assays were performed by Reaction Biology Corps by their protocol in duplicate using Km amounts of ATP calculated for each kinase.

[2] = target: T2, BRAF (BRAF^WT) (Homo sapiens, UniProt P15056); test: Radiolabeled kinase assay (Reaction Biology); assay type: biochemical
T2 construct: purchased Reaction Biology Corps
T2 sequence (P15056 whole entry): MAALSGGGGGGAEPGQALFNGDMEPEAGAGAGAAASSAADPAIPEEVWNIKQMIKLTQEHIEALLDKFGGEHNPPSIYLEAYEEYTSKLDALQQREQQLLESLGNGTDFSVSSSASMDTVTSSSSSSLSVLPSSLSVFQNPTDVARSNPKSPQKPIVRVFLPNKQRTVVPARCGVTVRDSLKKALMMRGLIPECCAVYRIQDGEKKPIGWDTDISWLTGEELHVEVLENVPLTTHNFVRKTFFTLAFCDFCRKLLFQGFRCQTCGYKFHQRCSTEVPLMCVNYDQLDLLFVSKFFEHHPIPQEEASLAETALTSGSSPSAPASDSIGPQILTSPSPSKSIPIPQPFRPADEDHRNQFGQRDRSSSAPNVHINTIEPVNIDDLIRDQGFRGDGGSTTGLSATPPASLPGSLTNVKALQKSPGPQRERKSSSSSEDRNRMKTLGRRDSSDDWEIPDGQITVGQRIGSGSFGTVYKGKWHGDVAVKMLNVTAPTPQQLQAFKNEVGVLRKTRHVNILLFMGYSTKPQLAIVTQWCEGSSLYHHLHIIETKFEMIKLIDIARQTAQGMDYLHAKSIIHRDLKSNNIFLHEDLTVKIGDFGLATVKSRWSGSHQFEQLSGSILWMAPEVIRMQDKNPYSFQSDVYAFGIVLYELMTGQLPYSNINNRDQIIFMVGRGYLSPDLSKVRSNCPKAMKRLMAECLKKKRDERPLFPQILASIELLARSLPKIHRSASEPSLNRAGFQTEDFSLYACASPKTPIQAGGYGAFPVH
Protocol: as §1

[3] = target: T3, BRAF (G464V) (Homo sapiens, UniProt P15056, G464V); test: Radiolabeled kinase assay (Reaction Biology); assay type: biochemical
T3 construct: purchased Reaction Biology Corps
T3 sequence (P15056 whole entry G464V): as the sequence (P15056 whole entry) above, with G464V counted along it
Protocol: as §1

[4] = target: T4, BRAF (G469A) (Homo sapiens, UniProt P15056, G469A); test: Radiolabeled kinase assay (Reaction Biology); assay type: biochemical
T4 construct: purchased Reaction Biology Corps
T4 sequence (P15056 whole entry G469A): as the sequence (P15056 whole entry) above, with G469A counted along it
Protocol: as §1

[5] = target: T5, BRAF (K601E) (Homo sapiens, UniProt P15056, K601E); test: Radiolabeled kinase assay (Reaction Biology); assay type: biochemical
T5 construct: purchased Reaction Biology Corps
T5 sequence (P15056 whole entry K601E): as the sequence (P15056 whole entry) above, with K601E counted along it
Protocol: as §1

[6] = target: T6, BRAF (L597V) (Homo sapiens, UniProt P15056, L597V); test: Radiolabeled kinase assay (Reaction Biology); assay type: biochemical
T6 construct: purchased Reaction Biology Corps
T6 sequence (P15056 whole entry L597V): as the sequence (P15056 whole entry) above, with L597V counted along it
Protocol: as §1

[7] = target: T7, BRAF (V600A) (Homo sapiens, UniProt P15056, V600A); test: Radiolabeled kinase assay (Reaction Biology); assay type: biochemical
T7 construct: purchased Reaction Biology Corps
T7 sequence (P15056 whole entry V600A): as the sequence (P15056 whole entry) above, with V600A counted along it
Protocol: as §1

[8] = target: T8, BRAF (V600D) (Homo sapiens, UniProt P15056, V600D); test: Radiolabeled kinase assay (Reaction Biology); assay type: biochemical
T8 construct: purchased Reaction Biology Corps
T8 sequence (P15056 whole entry V600D): as the sequence (P15056 whole entry) above, with V600D counted along it
Protocol: as §1

[9] = target: T9, BRAF (V600K) (Homo sapiens, UniProt P15056, V600K); test: Radiolabeled kinase assay (Reaction Biology); assay type: biochemical
T9 construct: purchased Reaction Biology Corps
T9 sequence (P15056 whole entry V600K): as the sequence (P15056 whole entry) above, with V600K counted along it
Protocol: as §1

[10] = target: CRAF (Homo sapiens, UniProt P04049); test: Radiolabeled kinase assay (Reaction Biology); assay type: biochemical
Sequence of CRAF (P04049 whole entry): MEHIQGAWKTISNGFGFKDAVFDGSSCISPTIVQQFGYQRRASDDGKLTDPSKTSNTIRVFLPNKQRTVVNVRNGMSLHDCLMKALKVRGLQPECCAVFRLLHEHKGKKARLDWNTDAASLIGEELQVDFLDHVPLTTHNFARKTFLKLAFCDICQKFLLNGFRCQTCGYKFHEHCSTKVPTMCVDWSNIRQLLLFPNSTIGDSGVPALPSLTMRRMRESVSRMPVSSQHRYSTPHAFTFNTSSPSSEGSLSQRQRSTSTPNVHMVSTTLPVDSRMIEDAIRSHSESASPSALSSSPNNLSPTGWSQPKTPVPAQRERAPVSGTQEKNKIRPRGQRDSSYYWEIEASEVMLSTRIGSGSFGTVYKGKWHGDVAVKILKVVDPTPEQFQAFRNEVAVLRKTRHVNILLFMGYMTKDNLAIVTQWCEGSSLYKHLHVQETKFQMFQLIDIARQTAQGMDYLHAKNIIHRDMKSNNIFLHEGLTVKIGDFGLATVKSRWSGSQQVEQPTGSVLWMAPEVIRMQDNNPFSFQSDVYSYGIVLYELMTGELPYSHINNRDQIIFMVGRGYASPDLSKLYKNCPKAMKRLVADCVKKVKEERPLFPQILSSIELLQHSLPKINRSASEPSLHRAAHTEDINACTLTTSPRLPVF
Protocol: as §1

[11] = target: T10, BRAF WT (Homo sapiens, UniProt P15056); test: Elisa kinase inhibition assay (Carna Biosciences); assay type: biochemical; conditions: Km ATP, duplicate
T10 construct: purchased Carna Biosciences
T10 sequence (P15056 whole entry): as the sequence (P15056 whole entry) above
Protocol: Kinase assays were performed by Carna Biosciences by their protocol in duplicate using Km amounts of ATP calculated for each kinase.

[12] = system: MEK and ERK phosphorylation (SK-MEL-28 cells); test: MEK and ERK phosphorylation by immunoblot in SK-MEL-28 cells; assay type: cell-based
Protocol: (§2) Cells were plated in 6 well dishes (5 × 10^5–8 × 10^5 cells) and allowed to attach overnight. […] The plates were then placed on ice and washed 1x with chilled PBS and lysed in buffer containing 25 mM Tris-HCl [pH 7.4], 0.25% sodium deoxycholate, 150 mM NaCl, 1% Triton X-100, supplemented with protease inhibitors (1x Roche protease inhibitor cocktail) and phosphatase inhibitors (10 mM NaF, 1 mM Na3OV4, and 20 mM β-glycerophosphate). Lysates were then cleared at 21,000 g for 10 min at 4 °C. Protein concentrations of the supernatants were then quantified using a Pierce BCA Protein Assay. 12–40 µg of protein were separated using a gradient (4–20%) Criterion TGX precast gel and transferred unto a nitrocellulose membrane. The membranes were then blocked in 5% non-fat milk in TBST (Tris-buffered Saline with Tween 20) for 1 h before probing with the indicated primary antibody overnight. Membranes were imaged using Bio-Rad Image Lab software using ECL prime detection reagent (GE Healthcare, RPN2232 or ThermoScientific, 34095).
(§3) Western blot data was quantified by using the band feature in Image Lab, and values were averaged and analyzed in GraphPad Prism. DC50 and DMAX values were fitted using a three parameter [inhibitor] versus response and reported directly from the Prism output. Mean ± SD and unpaired t-tests were performed in GraphPad Prism.

[13] = target: T11, BRAF-p61^V600E (SK-MEL-239 C4 cells) (Homo sapiens, UniProt P15056+P40337, DEL169-380/V600E); test: BRAF degradation by immunoblot in SK-MEL-239 C4 cells; assay type: cell-based; conditions: p61 dimer
T11 construct: endogenous in cells; host or cells: SK-MEL-239 C4; HCC-364 vr1
T11 sequence (P15056 with tags, fused parts or gaps DEL169-380/V600E): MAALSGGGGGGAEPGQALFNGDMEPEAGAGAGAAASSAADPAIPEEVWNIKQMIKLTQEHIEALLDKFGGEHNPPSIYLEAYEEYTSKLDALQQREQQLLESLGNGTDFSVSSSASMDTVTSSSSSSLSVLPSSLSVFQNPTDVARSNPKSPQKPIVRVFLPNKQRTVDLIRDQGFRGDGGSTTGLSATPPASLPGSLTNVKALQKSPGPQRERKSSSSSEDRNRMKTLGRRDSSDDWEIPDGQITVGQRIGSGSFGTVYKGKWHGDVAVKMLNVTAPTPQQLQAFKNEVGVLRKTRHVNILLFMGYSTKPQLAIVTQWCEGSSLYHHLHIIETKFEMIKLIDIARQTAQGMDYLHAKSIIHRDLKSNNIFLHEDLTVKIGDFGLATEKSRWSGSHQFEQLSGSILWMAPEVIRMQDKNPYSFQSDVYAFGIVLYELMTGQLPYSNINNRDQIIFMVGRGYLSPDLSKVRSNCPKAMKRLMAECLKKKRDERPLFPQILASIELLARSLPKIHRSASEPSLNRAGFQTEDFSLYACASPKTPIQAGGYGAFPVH
T11 sequence (P40337 whole entry, stated change not applied): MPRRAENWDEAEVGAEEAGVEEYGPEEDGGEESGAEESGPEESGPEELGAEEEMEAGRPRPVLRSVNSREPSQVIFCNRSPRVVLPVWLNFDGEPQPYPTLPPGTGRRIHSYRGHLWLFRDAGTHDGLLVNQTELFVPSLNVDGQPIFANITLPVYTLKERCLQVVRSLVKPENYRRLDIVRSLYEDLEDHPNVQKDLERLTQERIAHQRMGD
T11 sequence (Q15370 whole entry partner): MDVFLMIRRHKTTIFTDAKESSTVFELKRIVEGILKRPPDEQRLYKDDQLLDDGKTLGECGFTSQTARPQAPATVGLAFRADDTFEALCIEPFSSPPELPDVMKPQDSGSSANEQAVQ
T11 sequence (Q15369 whole entry partner): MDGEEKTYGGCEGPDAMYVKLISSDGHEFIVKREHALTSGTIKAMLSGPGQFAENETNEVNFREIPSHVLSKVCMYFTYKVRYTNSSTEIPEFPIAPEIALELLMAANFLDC
Protocol: as §2, §3

[14] = target: T12, BRAF-p61^V600E (SK-MEL-239 C4 cells) (Homo sapiens, UniProt P15056, DEL169-380/V600E); test: as above; assay type: cell-based; conditions: p61 dimer
T12 construct: endogenous in cells; host or cells: SK-MEL-239 C4; HCC-364 vr1
T12 sequence (P15056 with tags, fused parts or gaps DEL169-380/V600E): as the sequence (P15056 with tags, fused parts or gaps DEL169-380/V600E) above
T12 sequence (P40337 whole entry, stated change not applied, further chain): as the sequence (P40337 whole entry, stated change not applied) above
T12 sequence (Q15370 whole entry partner): as the sequence (Q15370 whole entry partner) above
T12 sequence (Q15369 whole entry partner): as the sequence (Q15369 whole entry partner) above
Protocol: as §2, §3

[15] = target: T13, BRAF^G466V (CAL-12-T cells, homozygous, Class 3) (Homo sapiens, UniProt P15056, G466V); test: BRAF degradation by immunoblot in CAL-12-T cells; assay type: cell-based
T13 construct: endogenous in cells; host or cells: CAL-12-T
T13 sequence (P15056 whole entry G466V): as the sequence (P15056 whole entry) above, with G466V counted along it
Protocol: as §2, §3

[16] = target: T14, BRAF^G466V (H1666 cells, heterozygous, Class 3) (Homo sapiens, UniProt P15056, G466V); test: BRAF degradation by immunoblot in H1666 cells; assay type: cell-based
T14 construct: endogenous in cells; host or cells: H1666
T14 sequence (P15056 2-766 G466V): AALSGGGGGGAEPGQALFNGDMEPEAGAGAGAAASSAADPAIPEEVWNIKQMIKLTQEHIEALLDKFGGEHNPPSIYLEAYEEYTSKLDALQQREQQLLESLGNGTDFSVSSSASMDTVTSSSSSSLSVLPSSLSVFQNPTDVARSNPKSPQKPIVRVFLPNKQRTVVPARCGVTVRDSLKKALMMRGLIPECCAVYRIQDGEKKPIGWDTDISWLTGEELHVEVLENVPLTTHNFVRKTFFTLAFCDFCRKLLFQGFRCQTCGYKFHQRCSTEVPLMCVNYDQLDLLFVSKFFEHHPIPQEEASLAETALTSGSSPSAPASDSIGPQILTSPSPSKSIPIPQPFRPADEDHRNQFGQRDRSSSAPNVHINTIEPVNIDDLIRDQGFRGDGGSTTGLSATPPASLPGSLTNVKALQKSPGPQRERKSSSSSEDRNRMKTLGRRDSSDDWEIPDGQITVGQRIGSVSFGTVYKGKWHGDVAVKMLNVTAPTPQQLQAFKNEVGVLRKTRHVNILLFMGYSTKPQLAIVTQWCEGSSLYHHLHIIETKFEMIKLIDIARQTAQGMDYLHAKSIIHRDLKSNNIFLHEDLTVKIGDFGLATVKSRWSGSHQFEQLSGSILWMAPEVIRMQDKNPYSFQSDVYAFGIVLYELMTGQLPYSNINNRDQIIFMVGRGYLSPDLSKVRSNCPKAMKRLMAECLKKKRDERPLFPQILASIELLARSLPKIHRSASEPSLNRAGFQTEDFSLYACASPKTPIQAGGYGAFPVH
Protocol: as §2, §3

[17] = system: BRAF (SK-MEL-239 cells, heterozygous BRAF^V600E); test: BRAF degradation by immunoblot in SK-MEL-239 cells; assay type: cell-based
Protocol: as §2, §3

[18] = target: T15, V5-tagged BRAF^WT (NIH3T3 cells) (Homo sapiens, UniProt P15056); test: V5-BRAF degradation by immunoblot in inducible NIH3T3 cells; assay type: cell-based
T15 construct: expressed in transfected cells; host or cells: NIH3T3 (mouse fibroblasts), doxycycline-inducible expression
T15 sequence (P15056 whole entry): as the sequence (P15056 whole entry) above
Protocol: as §2, §3

[19] = system: SK-MEL-239 C4 cells (BRAF^WT/BRAF-p61^V600E); test: Cell proliferation (MTS) assay; assay type: cell-based; conditions: 5 days
[20] = system: SK-MEL-246 cells (Class 2, BRAF^G469A); test: Cell proliferation (MTS) assay; assay type: cell-based; conditions: 120 h, 5-day treatment, read-out: EC50, cell growth
[21] = system: CAL-12-T cells (Class 3, BRAF^G466V); test: Cell proliferation (MTS) assay; assay type: cell-based; conditions: 5 days
Protocol: […] 2 mg/ml MTS (Promega Corp., Madison, WI: G5421) and 25 μM phenazine methosulfate (Sigma, St. Louis, MO) were combined 19:1 and then added to cells (1 volume combined reagent: 5 volumes medium) and incubated for 1–3 h. Mitochondrial reduction of MTS to the formazan derivative was monitored by measuring the medium’s absorbance at 480 nm using a Perkin Elmer Envision Plate reader.

T1 sequence (P10398 whole entry): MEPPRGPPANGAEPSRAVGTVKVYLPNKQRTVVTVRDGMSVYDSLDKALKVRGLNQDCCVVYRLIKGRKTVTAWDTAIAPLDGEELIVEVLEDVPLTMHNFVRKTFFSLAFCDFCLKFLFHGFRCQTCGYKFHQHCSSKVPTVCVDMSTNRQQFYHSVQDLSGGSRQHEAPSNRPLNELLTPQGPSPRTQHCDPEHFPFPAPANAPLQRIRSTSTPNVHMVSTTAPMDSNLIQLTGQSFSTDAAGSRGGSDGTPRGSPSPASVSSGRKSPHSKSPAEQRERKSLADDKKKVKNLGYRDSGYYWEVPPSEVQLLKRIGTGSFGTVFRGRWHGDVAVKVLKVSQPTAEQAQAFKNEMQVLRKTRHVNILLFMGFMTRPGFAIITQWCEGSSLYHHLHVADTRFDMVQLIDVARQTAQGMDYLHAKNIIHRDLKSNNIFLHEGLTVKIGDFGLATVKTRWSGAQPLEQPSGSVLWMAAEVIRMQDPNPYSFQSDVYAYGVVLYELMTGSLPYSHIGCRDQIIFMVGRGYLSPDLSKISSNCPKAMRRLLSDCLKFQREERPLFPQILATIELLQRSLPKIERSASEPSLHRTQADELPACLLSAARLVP

Work on `CCCS(=O)(=O)Nc1ccc(F)c(C(=O)c2c[nH]c3ncc(-c4ccc(N5CCN(CC(=O)NC(C(=O)N6CC(O)CC6C(=O)NCc6ccc(-c7scnc7C)cc6)C(C)(C)C)CC5)cc4)cc23)c1F` (stereo not drawn) [SJF-0628] yielded an IC50 [1] of 0.27 nM, an IC50 [2] of 5.8 nM and an IC50 [3] of 9.18 nM. It also gave an IC50 [4] of 0.98 nM, an IC50 [5] of 7.84 nM and an IC50 [6] of 16 nM. The IC50 [7] was 1.06 nM, the IC50 [8] was 2.68 nM and the IC50 [9] was 0.49 nM. The IC50 [10] was 37.6 nM, the IC50 [11] was 39.2 nM and the “concentration giving maximal inhibition of MEK and ERK phosphorylation / maximal suppression of p-ERK” value [12] was 10 nM. The “increase in potency of the PROTAC over epimer SJF-0661 (p-ERK suppression)” value [12] was 10 fold, the Dmax [13] was over 80% and the DC50 [14] was 72 nM. The DC50 [15] was 23 nM, the Dmax [15] was over 90% and the DC50 [16] was 29 nM. For the same compound, the Dmax ([16]; NCI-H1666) was over 80%, the BRAF degradation [17] was “minimal BRAF degradation” and the “PROTAC-mediated BRAF^WT degradation” value ([18]; 1 µM PD0325901 pre-treatment 3 h, SJF-0628 1 μM 20 h) was ~ 80%. The “degradation of BRAF^WT by the PROTAC” value ([18]; 1 µM SCH772984 pre-treatment 3 h, SJF-0628 20 h) was ~ 90%, the “expression of WT RAF family members” value ([18]; doxycycline-inducible V5-BRAF, no pre-treatment) was “spared BRAF^WT, ARAF, and CRAF” and the EC50 ([19]; 120 h, read-out: EC50, cell growth) was 218 nM. The “decrease in cell growth” value [19] was ~ 80%, the EC50 [20] was 45 ± 1.11 nM and the “inhibition of cell growth / effect on cell viability” value [21] was “minimal inhibition of cell growth; also recorded: minimal effect on cell viability”.
